According to patent US8883745B2, “C—glycolipids with enhanced Th-1 profile” (New York University, priority 2006, dated 2014):

What was measured:
Type in all cases: in vivo
IL-12 [1] = experiment: IL-12 levels in sera upon i.v. glycolipid administration to C57BL/6 mice (ELISA); parameters: IL-12 levels, test 1 / IL-12 levels, test 2 / IL-12 levels, average / IL-12 levels, Total: unit not given here
Protocol: (§1) Five- to six-week-old female C57BL/6 mice and BALB/c mice were purchased from Taconic. Each glycolipid was stored at 1 mg/ml in 100% DMSO. Mice were injected intravenously with 1 μg of each glyocolipid diluted in 200 μL sterile phosphate buffered saline (PBS). At indicated time points, sera were collected from each animal, and concentrations of IFN-γ, IL-4, and IL-12 in the sera were evaluated by enzyme-linked immunosorbent assay (ELISA). Serum concentrations of IFN-γ, IL-4, and IL-12 were evaluated using an ELISA kit (eBioscience, San Diego, Calif.). Briefly, 96 well flat-bottom ELISA plates (NUNC) were coated with capture antibody according to the manufacture's recommendation and incubated overnight at 4° C. The plates were washed with PBS+0.05% Tween 20 (PBS-T), then incubated with manufacturer provided blocking solution for 1 hr at room temperature to block non-specific binding sites. After washing with PBS-T, sera diluted 1:10 was added to the wells and incubated for 2 hrs at room temperature. Plates were then incubated at room temperature for 1 hr with biotintylated detection antibody, washed, incubated with avidin conjugated to horse radish peroxidase (HRP) for 30 min at room temperature, washed, and finally incubated with tetramethylbenzidine substrate solution in the dark for 10 minutes at room temperature. The antibodies, avidin-HRP, and substrate solution were all diluted according to the manufacture's recommendation. Reactions were stopped with 2.0N sulfuric acid and the cytokine concentration in each well was determined by comparing the absorbance at 450 nm in each well to known standards. The levels of Th1- and Th2-type cytokines were determined in two different genetic backgrounds, i.e., in C57BL/6 mice and BALB/c mice. The following compounds were administered: A=compound (A-1 trans-conformer), B=compound (A-2), C=compound (A-3), D=compound (A-4), E=compound (A-5), Z=control (PBS alone), CRONY=α-C-GalCer, KRN=α-GalCer, GCK109 (A-1 trans-conformer), GCK151 (A-1 cis-conformer), GCK152 (A-7). The levels of cytokines were measured at 0, 2, 6, 12, 24, 48, and 72 hours after the compound administration. The levels of Th1-type cytokines IFN-γ and IL-12 are summarized in FIGS. 2A-C and 3A-C, respectively. Table 7 provides IFN-γ/IL-4 and IL-12/IL-4 ratios for various compounds, which can be used as indicators of their ability to selectively stimulate Th1-type immune responses.

IFN-γ [2] = experiment: IFN-γ levels in sera upon i.v. glycolipid administration to C57BL/6 mice (ELISA); parameters: IFN-γ levels, test 1 / IFN-γ levels, test 2 / IFN-γ levels, average / IFN-γ levels, Total / IFN-γ (B6): unit not given here
Protocol: as §1

IFN-γ [3] = experiment: IFN-γ levels in sera upon i.v. glycolipid administration to BALB/c mice (ELISA); parameters: IFN-γ levels, test 1 / IFN-γ levels, test 2 / IFN-γ levels, average / IFN-γ levels, Total: unit not given here; conditions: BALB/c
Protocol: as §1

IL-12 [4] = experiment: IL-12 levels in sera upon i.v. glycolipid administration to BALB/c mice (ELISA); parameters: IL-12 levels, test 1 / IL-12 levels, test 2 / IL-12 levels, average / IL-12 levels, Total: unit not given here
Protocol: as §1

[5] = C57BL/6, ratio calculated from Tables 1-6
[6] = C57BL/6, serum, total over hours 0-72
[7] = ratio calculated from Tables 1-6

CCCCCCCCCCCCCCCCCCCCCCCCCC(=O)N[C@@H](CO[C@H]1O[C@H](CO)[C@H](O)[C@H](O)[C@H]1O)[C@H](O)[C@H](O)CCCCCCCCCCCCCC [KRN, (2S,3S,4R)-1-O-(α-D-galactopyranosyl)-2-(N-hexacosanoylamino)-1,3,4-,-octadecanetriol, reference compound]
IL-12/IL-4 (B6) (IL-12 [1]; [5]): 0.3 | IL-12 levels, average (IL-12 [1]; C57BL/6, serum, hour 0): 5 | IL-12 levels, test 1 (IL-12 [1]; C57BL/6, serum, hour 0): 5 | IL-12 levels, test 2 (IL-12 [1]; C57BL/6, serum, hour 0): 5 | IL-12 levels, average (IL-12 [1]; C57BL/6, serum, hour 2): 0 | IL-12 levels, test 1 (IL-12 [1]; C57BL/6, serum, hour 2): 0 | IL-12 levels, test 2 (IL-12 [1]; C57BL/6, serum, hour 2): 0 | IL-12 levels, average (IL-12 [1]; C57BL/6, serum, hour 6): 1044.5 | IL-12 levels, test 1 (IL-12 [1]; C57BL/6, serum, hour 6): 1116 | IL-12 levels, test 2 (IL-12 [1]; C57BL/6, serum, hour 6): 973 | IL-12 levels, average (IL-12 [1]; C57BL/6, serum, hour 12): 195 | IL-12 levels, test 1 (IL-12 [1]; C57BL/6, serum, hour 12): 174 | IL-12 levels, test 2 (IL-12 [1]; C57BL/6, serum, hour 12): 216 | IL-12 levels, average (IL-12 [1]; C57BL/6, serum, hour 24): 0 | IL-12 levels, test 1 (IL-12 [1]; C57BL/6, serum, hour 24): 0 | IL-12 levels, test 2 (IL-12 [1]; C57BL/6, serum, hour 24): 0 | IL-12 levels, average (IL-12 [1]; C57BL/6, serum, hour 48): 61.5 | IL-12 levels, test 1 (IL-12 [1]; C57BL/6, serum, hour 48): 0 | IL-12 levels, test 2 (IL-12 [1]; C57BL/6, serum, hour 48): 123 | IL-12 levels, average (IL-12 [1]; C57BL/6, serum, hour 72): 132.5 | IL-12 levels, test 1 (IL-12 [1]; C57BL/6, serum, hour 72): 101 | IL-12 levels, test 2 (IL-12 [1]; C57BL/6, serum, hour 72): 164 | IL-12 levels, Total (IL-12 [1]; [6]): 1440 | IFN-γ/IL-4 (B6) (IFN-γ [2]; [5]): 3 | IFN-γ levels, average (IFN-γ [2]; C57BL/6, serum, hour 0): 31 | IFN-γ levels, test 1 (IFN-γ [2]; C57BL/6, serum, hour 0): 31 | IFN-γ levels, test 2 (IFN-γ [2]; C57BL/6, serum, hour 0): 31 | IFN-γ levels, average (IFN-γ [2]; C57BL/6, serum, hour 2): 874.5 | IFN-γ levels, test 1 (IFN-γ [2]; C57BL/6, serum, hour 2): 938 | IFN-γ levels, test 2 (IFN-γ [2]; C57BL/6, serum, hour 2): 811 | IFN-γ levels, average (IFN-γ [2]; C57BL/6, serum, hour 6): 1919 | IFN-γ levels, test 1 (IFN-γ [2]; C57BL/6, serum, hour 6): 1811 | IFN-γ levels, test 2 (IFN-γ [2]; C57BL/6, serum, hour 6): 2027 | IFN-γ levels, average (IFN-γ [2]; C57BL/6, serum, hour 12): 5352.5 | IFN-γ levels, test 1 (IFN-γ [2]; C57BL/6, serum, hour 12): 5179 | IFN-γ levels, test 2 (IFN-γ [2]; C57BL/6, serum, hour 12): 5526 | IFN-γ levels, average (IFN-γ [2]; C57BL/6, serum, hour 24): 2216 | IFN-γ levels, test 1 (IFN-γ [2]; C57BL/6, serum, hour 24): 2214 | IFN-γ levels, test 2 (IFN-γ [2]; C57BL/6, serum, hour 24): 2218 | IFN-γ levels, average (IFN-γ [2]; C57BL/6, serum, hour 48): 126 | IFN-γ levels, test 1 (IFN-γ [2]; C57BL/6, serum, hour 48): 252 | IFN-γ levels, test 2 (IFN-γ [2]; C57BL/6, serum, hour 48): 0 | IFN-γ levels, average (IFN-γ [2]; C57BL/6, serum, hour 72): 166 | IFN-γ levels, test 1 (IFN-γ [2]; C57BL/6, serum, hour 72): 332 | IFN-γ levels, test 2 (IFN-γ [2]; C57BL/6, serum, hour 72): 0 | IFN-γ levels, Total (IFN-γ [2]; [6]): 10686 | IFN-γ/IL-4 (BALB/c) (IFN-γ [3]; [7]): 10 | IFN-γ levels, average (IFN-γ [3]; serum, hour 0): 27 | IFN-γ levels, test 1 (IFN-γ [3]; serum, hour 0): 27 | IFN-γ levels, test 2 (IFN-γ [3]; serum, hour 0): 27 | IFN-γ levels, average (IFN-γ [3]; serum, hour 2): 945 | IFN-γ levels, test 1 (IFN-γ [3]; serum, hour 2): 841 | IFN-γ levels, test 2 (IFN-γ [3]; serum, hour 2): 1049 | IFN-γ levels, average (IFN-γ [3]; serum, hour 6): 4752.5 | IFN-γ levels, test 1 (IFN-γ [3]; serum, hour 6): 4170 | IFN-γ levels, test 2 (IFN-γ [3]; serum, hour 6): 5335 | IFN-γ levels, average (IFN-γ [3]; serum, hour 12): 8393.5 | IFN-γ levels, test 1 (IFN-γ [3]; serum, hour 12): 7996 | IFN-γ levels, test 2 (IFN-γ [3]; serum, hour 12): 8791 | IFN-γ levels, average (IFN-γ [3]; serum, hour 24): 6740 | IFN-γ levels, test 1 (IFN-γ [3]; serum, hour 24): 6497 | IFN-γ levels, test 2 (IFN-γ [3]; serum, hour 24): 6983 | IFN-γ levels, average (IFN-γ [3]; serum, hour 48): 112.5 | IFN-γ levels, test 1 (IFN-γ [3]; serum, hour 48): 86 | IFN-γ levels, test 2 (IFN-γ [3]; serum, hour 48): 139 | IFN-γ levels, average (IFN-γ [3]; serum, hour 72): 36 | IFN-γ levels, test 1 (IFN-γ [3]; serum, hour 72): 36 | IFN-γ levels, test 2 (IFN-γ [3]; serum, hour 72): 36 | IFN-γ levels, Total (IFN-γ [3]; serum, total over hours 0-72): 21008 | IL-12/IL-4 (BALB/c) (IL-12 [4]; [7]): 2 | IL-12 levels, average (IL-12 [4]; serum, hour 0): 5 | IL-12 levels, test 1 (IL-12 [4]; serum, hour 0): 5 | IL-12 levels, test 2 (IL-12 [4]; serum, hour 0): 5 | IL-12 levels, average (IL-12 [4]; serum, hour 2): 124 | IL-12 levels, test 1 (IL-12 [4]; serum, hour 2): 69 | IL-12 levels, test 2 (IL-12 [4]; serum, hour 2): 179 | IL-12 levels, average (IL-12 [4]; serum, hour 6): 3067.5 | IL-12 levels, test 1 (IL-12 [4]; serum, hour 6): 2567 | IL-12 levels, test 2 (IL-12 [4]; serum, hour 6): 3568 | IL-12 levels, average (IL-12 [4]; serum, hour 12): 437.5 | IL-12 levels, test 1 (IL-12 [4]; serum, hour 12): 282 | IL-12 levels, test 2 (IL-12 [4]; serum, hour 12): 593 | IL-12 levels, average (IL-12 [4]; serum, hour 24): 265.5 | IL-12 levels, test 1 (IL-12 [4]; serum, hour 24): 119 | IL-12 levels, test 2 (IL-12 [4]; serum, hour 24): 412 | IL-12 levels, average (IL-12 [4]; serum, hour 48): 68 | IL-12 levels, test 1 (IL-12 [4]; serum, hour 48): 57 | IL-12 levels, test 2 (IL-12 [4]; serum, hour 48): 79 | IL-12 levels, average (IL-12 [4]; serum, hour 72): 61 | IL-12 levels, test 1 (IL-12 [4]; serum, hour 72): 57 | IL-12 levels, test 2 (IL-12 [4]; serum, hour 72): 65 | IL-12 levels, Total (IL-12 [4]; serum, total over hours 0-72): 4030
